Assay results: patent US8901042B2, “High throughput screen for measuring membrane effects” (Cornell University, priority 2009, dated 2014)
Like-named read-outs stand apart in the source and are kept apart here.

How the values were obtained:
[1] = system: gramicidin A (gA) channels in DC22:1PC lipid bilayer vesicles; assay: gramicidin-based stopped-flow fluorescence quench assay (Tl+ influx into ANTS-filled, gA-doped LUVs); format: biochemical, Bacillus brevis; conditions: for rate of quencher influx (rate of stretched exponential): 260 nM gA, mean±SD, n>10, control 36±6; for Flourescence: concentration at which the molecules double/half the rate of the fluorescence quenching: fitted stretched exponential, rate at 2 ms, DC22:1PC LUVs
Protocol: 24 hours before fluorescence measurements, ANTS-filled liposomes were mixed 1:20 in S_Na_Buffer. For the portion of liposomes that are to be doped with gramicidin, the desired amount of gramicidins was added at this time. […] Gramicidin diluted in DMSO was used, but the added DMSO was kept to an absolute minimum (<0.1% of volume) as DMSO of >0.5% affects bilayer properties. The solution was stored at 12-13° C. in the dark.
The modifier in question was diluted in DMSO. The same amount of DMSO was added to all samples, including control.
For each condition: • 1. Use 1.5 mL of diluted ANTS-liposomes for each condition (compound, concentration). • 2. Add compound at the desired concentration and incubate for 10 min at 25° C. (keep in dark), or DMSO for controls. • 3. Record fluorescence, x8 repeats, with S_Na_Buffer (the first four should be removed due to mixing). • 4. Record fluorescence, x12 repeats, with S_Tl_Quencher (the first four should also be removed due to mixing).
Generate fluorescent liposomes. […] 1,2-Dierucoyl-sn-Glycero-3-Phosphocholine lipids, from Avanti Polar Lipids (Alabaster, Ala.), were bought in a lipid/chloroform solution and used without further purification. For each batch of vesicles, the lipid/chloroform solution was dried under nitrogen and then further dried in a dessicator under vacuum overnight to fully remove the chloroform. The dried lipid film was rehydrated in 100 mM NaNO3, 25 mM ANTS, 10 mM HEPES at pH 7.0 at room temperature over night, volume was adjusted to give a 10 mM lipid concentration. The suspension was then sonicated in a low power sonicator for 1 min, subjected to 5-6 freeze thaw cycles and extruded 21 times, at room temperature, using Avanti mini-extruder, Avanti Polar Lipids (Alabaster, Ala.), and a 0.1 μm Polycarbonate Membrane filter. External ANTS was removed by filtering though a PD-10 Desalting column, GE Healthcare (Piscataway, N.J.). Prepared ANTS-LUV stock was stored at 12-13° C. in the dark for a maximum of seven days. Before the fluorescence experiments ANTS-LUV stock was diluted 1:20 with 140 mM NaNO3, 10 mM HEPES, pH 7.0 buffer. For the portion of vesicles to be doped with gA the desired amount of gramicidin from Bacillus aneurinolyticus, Sigma Chemical Co. (St. Louis, Mo.), diluted in dimethylsulfoxide (DMSO) was added and incubated for 24 hours at 12-13° C. in the dark.
The final DMSO concentrations were kept consistent for all samples and under 0.5% with the exception of when DMSO was tested, then listed amounts where used and no DMSO was added to controls.
The fluorescence was measured using a SX.20 Stopped-Flow Spectrometer (Applied Photophysics, Leatherhead, UK), with a 150-W Xenon lamp, a two sample rapid mixing unit with machine dead time˜1.2 ms and a thermostatting water bath set to 25° C. The samples were excited at X=352 nm and fluorescence was recorded though λ=455 nm high pass filter with Pro-Data control software from Applied Photophysics, sampling 5000 points a second. For each sample at least 10 repeated mixing trials were measured, from two or more vesicle preparations. Each repeat was separately analyzed using MATLAB v7.4, The MathWorks, Inc (Natick, Mass.). The time course of fluorescence quenching was normalized to the average fluorescence without quencher, for that particular sample, and the first 2-100 ms of the time course was fitted with a stretched exponential. The initial influx rate is quantified as the rate of the stretched exponential at 2 ms.

[2] = biological target: Shaker potassium channel (Drosophila melanogaster, UniProt P08510); conditions: cited from earlier work
[3] = system: gA channel in DC18:1PC/n-decane bilayers; conditions: cited from earlier work; for Single channel: concentration at which the molecule double/half gA channel lifetime: standard bilayer-punch electrophysiological methods

Shaker potassium channel, sequence (P08510 whole entry): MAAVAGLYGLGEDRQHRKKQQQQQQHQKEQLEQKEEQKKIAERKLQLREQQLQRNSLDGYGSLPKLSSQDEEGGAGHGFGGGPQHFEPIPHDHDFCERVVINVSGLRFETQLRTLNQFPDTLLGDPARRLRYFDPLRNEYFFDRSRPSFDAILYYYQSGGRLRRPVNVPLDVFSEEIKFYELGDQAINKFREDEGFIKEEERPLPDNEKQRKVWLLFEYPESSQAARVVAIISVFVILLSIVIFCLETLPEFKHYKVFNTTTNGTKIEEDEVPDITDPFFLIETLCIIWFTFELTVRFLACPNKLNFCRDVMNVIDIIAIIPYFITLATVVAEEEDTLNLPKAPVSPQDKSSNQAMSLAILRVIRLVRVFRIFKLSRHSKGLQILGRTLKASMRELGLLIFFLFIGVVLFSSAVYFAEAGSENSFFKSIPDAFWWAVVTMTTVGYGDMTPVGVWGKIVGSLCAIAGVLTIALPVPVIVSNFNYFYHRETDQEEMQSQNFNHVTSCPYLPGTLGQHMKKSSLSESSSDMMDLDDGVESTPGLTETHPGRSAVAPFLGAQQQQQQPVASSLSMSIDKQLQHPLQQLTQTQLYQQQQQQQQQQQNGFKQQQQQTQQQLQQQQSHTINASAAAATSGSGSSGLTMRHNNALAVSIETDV

NCCc1c(SSc2[nH]c3cc(Br)ccc3c2CCN)[nH]c2cc(Br)ccc12 [BrMT]
effect on lipid bilayer properties (gA channel activity, stopped-flow) ([1]; stopped-flow experiments): altered lipid bilayer properties
Shaker potassium channel activation [2]: slows

COc1cc(CNC(=O)CCCC/C=C/C(C)C)ccc1O [Capsaicin]
Single channel: concentration at which the molecule double/half gA channel lifetime [3]: 25 µM
rate of quencher influx (rate of stretched exponential) ([1]; 10 μM capsaicin): 69±6
rate of quencher influx (rate of stretched exponential) ([1]; 30 μM capsaicin): 85±8
rate of quencher influx (rate of stretched exponential) ([1]; 90 μM capsaicin): 247±27
rate of fluorescence quenching (Tl+ influx) in the presence of gramicidin ([1]; 10, 30, 90 μM, concentration dependent): increased
Flourescence: concentration at which the molecules double/half the rate of the fluorescence quenching [1]: 21

Oc1cc2c(cc1O)CN(C(=S)NCCc1ccc(Cl)cc1)CCC2 [Capsazepine]
Single channel: concentration at which the molecule double/half gA channel lifetime [3]: 4 µM
Flourescence: concentration at which the molecules double/half the rate of the fluorescence quenching [1]: 16

C[S+](C)[O-] [Dimethyl sulfoxide]
Single channel: concentration at which the molecule double/half gA channel lifetime ([3]; in µM): >410,000
amount that affects bilayer properties ([1]; % of volume): > 0.5%
Flourescence: concentration at which the molecules double/half the rate of the fluorescence quenching [1]: 340,000

[Gd+3] [Gd^3+]
Single channel: concentration at which the molecule double/half gA channel lifetime [3]: > 30 µM
Flourescence: concentration at which the molecules double/half the rate of the fluorescence quenching [1]: <1000

O=c1c(-c2ccc(O)cc2)coc2cc(O)cc(O)c12 [Genistein]
Single channel: concentration at which the molecule double/half gA channel lifetime [3]: 25 µM
Flourescence: concentration at which the molecules double/half the rate of the fluorescence quenching [1]: 22

O=c1c(-c2ccc(O)cc2)coc2cc(O[C@@H]3O[C@H](CO)[C@@H](O)[C@H](O)[C@H]3O)cc(O)c12 [Genistin]
Single channel: concentration at which the molecule double/half gA channel lifetime [3]: >>30
Flourescence: concentration at which the molecules double/half the rate of the fluorescence quenching [1]: 910

OC(c1cc(C(F)(F)F)nc2c(C(F)(F)F)cccc12)C1CCCCN1 (centres unmarked) [Mefloquine]
gA channel frequency ([3]; single-channel electrophysiology): decreases
Single channel: concentration at which the molecule double/half gA channel lifetime [3]: 6 µM
Flourescence: concentration at which the molecules double/half the rate of the fluorescence quenching [1]: 37

CCCCCCCCO[C@@H]1O[C@H](CO)[C@@H](O)[C@H](O)[C@H]1O [β-octylglucoside]
Single channel: concentration at which the molecule double/half gA channel lifetime [3]: 270 µM
Flourescence: concentration at which the molecules double/half the rate of the fluorescence quenching [1]: 325

(−)-epigallocatechin gallate
effect on gA channel conductance ([3]; single-channel): causes conductance flickers or sub-conductance states
Single channel: concentration at which the molecule double/half gA channel lifetime [3]: 0.25 µM
Flourescence: concentration at which the molecules double/half the rate of the fluorescence quenching [1]: 12

Triton X-100
Single channel: concentration at which the molecule double/half gA channel lifetime [3]: 9 µM
Flourescence: concentration at which the molecules double/half the rate of the fluorescence quenching [1]: 13
